ChEMBL document CHEMBL3868599, “Strategy for designing selective α-l-rhamnosidase inhibitors: Synthesis and biological evaluation of l-DMDP cyclic isothioureas” (Bioorg Med Chem, 2017)
Blank lines part the entries; values can stand above or below the molecule they belong to.

Key:
[1] = Inhibition of Penicillium decumbens alpha-L-rhamnosidase assessed as reduction in hydrolysis of p-nitrophenyl-a-L-rhamnopyranoside
[2] = Inhibition of Penicillium decumbens alpha-L-rhamnosidase using p-nitrophenyl-glycoside as substrate by spectrophotometric method
[3] = Competitive inhibition of Penicillium decumbens alpha-L-rhamnosidase using p-nitrophenyl-glycoside as substrate by Lineweaver-Burk plot analysis
[4] = Inhibition of Penicillium decumbens alpha-L-rhamnosidase
[5] = system: Penicillium decumbens; test: Inhibition of Penicillium decumbens alpha-L-rhamnosidase at 1000 uM using p-nitrophenyl-glycoside as substrate by spectrophotometric method
[6] = system: Saccharomyces cerevisiae; test: Inhibition of yeast alpha-glucosidase at 1000 uM using p-nitrophenyl-glycoside as substrate by spectrophotometric method
[7] = system: Prunus dulcis; test: Inhibition of almond beta-glucosidase at 1000 uM using p-nitrophenyl-glycoside as substrate by spectrophotometric method
[8] = organism: Bos taurus; test: Inhibition of bovine liver beta-glucosidase at 1000 uM using p-nitrophenyl-glycoside as substrate by spectrophotometric method
[9] = organism: Homo sapiens; test: Inhibition of human lysosomal beta-glucosidase at 1000 uM using 4-methylumbelliferyl-beta-D-glucopyranoside as substrate preincubated for 45 mins followed by substrate addition measured after 30 mins by fluorescence spectrophotometric method
[10] = system: Coffea; test: Inhibition of coffee bean alpha-galactosidase at 1000 uM using p-nitrophenyl-glycoside as substrate by spectrophotometric method
[11] = system: Escherichia coli; test: Inhibition of Escherichia coli beta-galactosidase at 1000 uM using p-nitrophenyl-glycoside as substrate by spectrophotometric method
[12] = target: T1, Alpha-mannosidase (Canavalia ensiformis) (UniProt C0HJB3); test: Inhibition of Jack bean alpha-mannosidase at 1000 uM preincubated for 45 mins followed by addition of p-nitrophenyl-glycoside as substrate measured after 30 mins by fluorescence spectrophometry
T1 sequence (whole entry): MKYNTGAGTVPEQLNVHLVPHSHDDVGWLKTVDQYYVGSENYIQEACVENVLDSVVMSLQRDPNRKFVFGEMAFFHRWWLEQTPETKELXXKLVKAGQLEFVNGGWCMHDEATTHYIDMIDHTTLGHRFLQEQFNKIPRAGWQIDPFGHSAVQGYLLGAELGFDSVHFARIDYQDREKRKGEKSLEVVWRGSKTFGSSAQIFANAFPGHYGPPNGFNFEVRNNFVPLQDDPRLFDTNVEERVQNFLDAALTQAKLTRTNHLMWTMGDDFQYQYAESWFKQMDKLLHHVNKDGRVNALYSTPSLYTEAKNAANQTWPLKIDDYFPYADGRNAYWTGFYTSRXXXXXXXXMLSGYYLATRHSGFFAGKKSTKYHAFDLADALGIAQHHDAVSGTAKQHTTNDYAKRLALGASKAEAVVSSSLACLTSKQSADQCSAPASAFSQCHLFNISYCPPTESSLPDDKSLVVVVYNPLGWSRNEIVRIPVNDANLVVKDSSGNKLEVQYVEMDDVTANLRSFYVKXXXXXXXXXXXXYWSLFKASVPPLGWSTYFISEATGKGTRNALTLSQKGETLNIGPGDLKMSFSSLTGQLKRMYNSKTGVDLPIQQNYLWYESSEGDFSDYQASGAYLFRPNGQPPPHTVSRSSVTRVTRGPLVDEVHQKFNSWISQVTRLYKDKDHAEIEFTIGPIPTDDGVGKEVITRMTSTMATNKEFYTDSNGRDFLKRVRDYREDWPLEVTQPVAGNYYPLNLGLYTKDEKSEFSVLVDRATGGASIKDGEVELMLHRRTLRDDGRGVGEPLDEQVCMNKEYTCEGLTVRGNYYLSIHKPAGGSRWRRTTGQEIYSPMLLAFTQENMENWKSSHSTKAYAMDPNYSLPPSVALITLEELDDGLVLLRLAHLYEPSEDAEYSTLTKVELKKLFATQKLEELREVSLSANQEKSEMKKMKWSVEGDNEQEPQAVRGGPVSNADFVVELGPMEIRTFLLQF

[13] = system: Helix pomatia; test: Inhibition of Helix pomatia beta-mannosidase at 1000 uM using p-nitrophenyl-glycoside as substrate by spectrophotometric method
[14] = system: Aspergillus niger; test: Inhibition of Aspergillus niger amyloglucosidase assessed as D-glucose level at 1000 uM using maltose as substrate measured after 10 to 30 mins
[15] = system: Prunus dulcis; test: Inhibition of almond beta-glucosidase at 100 uM using p-nitrophenyl-glycoside as substrate by spectrophotometric method
[16] = Inhibition of bovine liver beta-glucosidase using p-nitrophenyl-glycoside as substrate by spectrophotometric method; design: species or system Bos taurus
[17] = system: Oryza sativa; test: Inhibition of rice alpha-glucosidase at 100 uM using p-nitrophenyl-glycoside as substrate by spectrophotometric method
[18] = organism: Rattus norvegicus; test: Inhibition of rat intestinal maltase assessed as D-glucose level at 100 uM using maltose as substrate measured after 10 to 30 mins
[19] = target: T2, Beta-galactosidase (Bos taurus) (UniProt Q58D55); test: (§1) Inhibition of bovine liver beta-galactosidase using p-nitrophenyl-glycoside as substrate by spectrophotometric method; details: concentration not given here
T2 sequence (whole entry): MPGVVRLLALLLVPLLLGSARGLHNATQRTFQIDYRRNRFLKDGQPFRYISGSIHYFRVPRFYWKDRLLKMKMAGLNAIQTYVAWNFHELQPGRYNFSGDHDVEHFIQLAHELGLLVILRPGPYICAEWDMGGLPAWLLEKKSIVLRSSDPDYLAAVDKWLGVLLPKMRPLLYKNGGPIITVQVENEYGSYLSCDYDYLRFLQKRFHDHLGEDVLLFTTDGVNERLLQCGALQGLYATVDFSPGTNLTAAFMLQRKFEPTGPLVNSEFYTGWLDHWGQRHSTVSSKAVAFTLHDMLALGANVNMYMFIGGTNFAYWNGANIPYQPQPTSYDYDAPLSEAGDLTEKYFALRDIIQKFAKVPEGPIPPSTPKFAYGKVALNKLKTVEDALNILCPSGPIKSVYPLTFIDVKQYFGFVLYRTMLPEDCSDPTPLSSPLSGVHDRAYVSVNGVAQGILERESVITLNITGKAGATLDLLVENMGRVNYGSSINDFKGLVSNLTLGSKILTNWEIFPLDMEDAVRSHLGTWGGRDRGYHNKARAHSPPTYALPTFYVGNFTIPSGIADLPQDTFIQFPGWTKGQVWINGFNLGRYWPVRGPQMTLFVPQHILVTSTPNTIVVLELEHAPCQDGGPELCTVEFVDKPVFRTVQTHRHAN

[20] = system: Aspergillus niger; test: Inhibition of Aspergillus niger amyloglucosidase assessed as D-glucose level at 100 uM using maltose as substrate measured after 10 to 30 mins
[21] = target: T3, Tissue alpha-L-fucosidase (Bos taurus) (UniProt Q2KIM0); test: Inhibition of bovine kidney alpha-L-fucosidase at 100 uM using p-nitrophenyl-glycoside as substrate by spectrophotometric method
T3 sequence (whole entry): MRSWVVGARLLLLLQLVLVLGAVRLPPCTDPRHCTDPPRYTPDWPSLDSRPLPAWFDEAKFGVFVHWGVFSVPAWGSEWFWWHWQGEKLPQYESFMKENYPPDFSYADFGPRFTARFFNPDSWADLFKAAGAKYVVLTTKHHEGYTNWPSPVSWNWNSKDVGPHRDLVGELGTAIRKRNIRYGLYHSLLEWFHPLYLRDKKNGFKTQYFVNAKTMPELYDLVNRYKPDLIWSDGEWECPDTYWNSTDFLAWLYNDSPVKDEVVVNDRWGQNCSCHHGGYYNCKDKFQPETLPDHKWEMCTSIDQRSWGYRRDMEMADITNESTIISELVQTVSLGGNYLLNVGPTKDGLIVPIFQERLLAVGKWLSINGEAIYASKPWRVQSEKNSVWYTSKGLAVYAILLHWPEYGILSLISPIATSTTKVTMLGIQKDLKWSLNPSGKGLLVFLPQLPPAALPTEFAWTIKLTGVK

[22] = target: T4, Uncharacterized protein (Sus scrofa) (UniProt I3LIR5); test: Inhibition of porcine kidney trehalase assessed as D-glucose level at 100 uM using maltose as substrate measured after 10 to 30 mins
T4 sequence (whole entry): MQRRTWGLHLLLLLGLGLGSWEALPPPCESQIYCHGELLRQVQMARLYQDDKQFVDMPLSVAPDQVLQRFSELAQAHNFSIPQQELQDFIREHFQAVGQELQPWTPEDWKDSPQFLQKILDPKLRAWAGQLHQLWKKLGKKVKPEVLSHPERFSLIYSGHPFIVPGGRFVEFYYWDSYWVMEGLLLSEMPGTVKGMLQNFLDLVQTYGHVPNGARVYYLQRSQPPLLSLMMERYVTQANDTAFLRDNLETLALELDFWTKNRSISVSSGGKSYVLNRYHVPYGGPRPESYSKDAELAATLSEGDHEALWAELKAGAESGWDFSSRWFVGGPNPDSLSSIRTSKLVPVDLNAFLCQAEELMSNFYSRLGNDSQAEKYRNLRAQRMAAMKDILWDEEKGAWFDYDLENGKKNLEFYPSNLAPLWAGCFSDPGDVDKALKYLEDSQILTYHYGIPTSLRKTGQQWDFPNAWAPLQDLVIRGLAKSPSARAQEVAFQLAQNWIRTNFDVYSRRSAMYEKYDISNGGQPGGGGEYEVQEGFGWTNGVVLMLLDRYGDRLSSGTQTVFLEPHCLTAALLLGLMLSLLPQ

[23] = organism: Homo sapiens; test: Inhibition of human lysosomal beta-glucosidase at 100 uM using 4-methylumbelliferyl-beta-D-glucopyranoside as substrate preincubated for 45 mins followed by substrate addition measured after 30 mins by fluorescence spectrophotometric method
[24] = system: Escherichia coli; test: Inhibition of Escherichia coli beta-glucuronidase at 100 uM using p-nitrophenyl-glycoside as substrate by spectrophotometric method
[25] = target: T5, Beta-galactosidase (Bos taurus, UniProt Q58D55); test: as §1
T5 sequence (Q58D55 whole entry): T2 sequence (whole entry)

[26] = target: T3, Tissue alpha-L-fucosidase (Bos taurus); test: Inhibition of bovine kidney alpha-L-fucosidase at 1000 uM using p-nitrophenyl-glycoside as substrate by spectrophotometric method
[27] = target: T4, Uncharacterized protein (Sus scrofa); test: Inhibition of porcine kidney trehalase assessed as D-glucose level at 1000 uM using maltose as substrate measured after 10 to 30 mins
[28] = system: Escherichia coli; test: Inhibition of Escherichia coli beta-glucuronidase at 1000 uM using p-nitrophenyl-glycoside as substrate by spectrophotometric method
[29] = Inhibition of rice alpha-glucosidase using p-nitrophenyl-glycoside as substrate by spectrophotometric method; design: species or system Oryza sativa
[30] = Inhibition of maltase in rat small intestinal brush border membranes assessed as D-glucose level using maltose as substrate measured after 10 to 30 mins

Structure (SMILES): C[C@H](O)[C@@H]1NC[C@H](O)[C@@H]1O
- IC50 [1]: 4 µM

Structure (SMILES): C[C@H]1NC[C@H](O)[C@H](O)[C@H]1O
- IC50 [2]: 10 µM
- Ki [3]: 4.2 µM
- IC50 [4]: 5 µM

Structure (SMILES): O[C@@H]1[C@@H]2[C@@H](O)CCCN2C[C@@H]1O
- IC50 [1]: 0.3 µM

Further lines, results first:

- inhibition [5]: < 50%
- inhibition [6]: < 50%
- inhibition [7]: < 50%
- inhibition [8]: < 50%
- inhibition [9]: < 50%
- inhibition [10]: < 50%
- inhibition [11]: < 50%
- inhibition [12]: < 50%
- inhibition [13]: < 50%
- inhibition [14]: < 50%
Structure (SMILES): OC[C@@H]1N[C@@H](CO)[C@H](O)[C@H]1O

- IC50 [2]: 0.87 µM
- inhibition [15]: < 50%
- IC50 [16]: 33 µM
- inhibition [17]: < 50%
- inhibition [18]: < 50%
- inhibition [19]: < 50%
- inhibition [20]: < 50%
- inhibition [21]: < 50%
- inhibition [22]: < 50%
- inhibition [23]: < 50%
- inhibition [24]: < 50%
Structure (SMILES): OC[C@H]1[C@H](O)[C@@H](O)[C@@H]2CS/C(=N/CCCCCCCCCc3ccccc3)N12

- inhibition [5]: < 50%
- inhibition [7]: < 50%
- IC50 [16]: 939 µM
- inhibition [9]: < 50%
- inhibition [14]: < 50%
- IC50 [25]: 473 µM
- inhibition [26]: < 50%
- inhibition [27]: < 50%
- inhibition [28]: < 50%
- IC50 [29]: 741 µM
- IC50 [30]: 1000 µM
Structure (SMILES): CCCCNC(=S)N1[C@@H](CO)[C@H](O)[C@@H](O)[C@@H]1CO
